# Measured values reported in the supplement of paper PMC11061612.
# What was measured:
# Assay in all cases: Bliss excess, mean over the matrix (fraction); higher = more synergy
# [1] = tested on: SKG-IIIa (Cervical Carcinoma)
# Procedure, shortened: (§1)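 Cell lines in DMEM/F12 or RPMI with 10% FBS were plated in 1536-well plates, held 24 hours at 37°C, 5% CO2, then given two-drug dose matrices for 72 hours (DMSO typically 0.2%). Viability was read by CellTiter-Glo 2.0 luminescence and scaled as inhibition from 0 (vehicle wells) to 1 (blank wells). Combination Emax is the second-highest inhibition in the matrix; Bliss excess is observed combination effect minus expected EA + EB − EA·EB, EA and EB being single-agent effects.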
# [2] = tested on: SUP-M2 (T-Cell Non-Hodgkin's Lymphoma)
# Procedure, shortened: as §1
# [3] = tested on: NCI-H596 (Other Solid Carcinomas)
# Procedure, shortened: as §1
# [4] = tested on: SK-N-SH (Neuroblastoma)
# Procedure, shortened: as §1
# [5] = tested on: UACC-257 (Melanoma)
# Procedure, shortened: as §1
# [6] = tested on: Raji (Burkitt's Lymphoma)
# Procedure, shortened: as §1
# [7] = tested on: NB1 (Neuroblastoma)
# Procedure, shortened: as §1
# [8] = tested on: NCI-H2373 (Mesothelioma)
# Procedure, shortened: as §1
# [9] = tested on: TUR (Acute Myeloid Leukemia)
# Procedure, shortened: as §1
# [10] = tested on: LCLC-103H (Non-Small Cell Lung Carcinoma)
# Procedure, shortened: as §1
# [11] = tested on: SNU-C2B (Colorectal Carcinoma)
# Procedure, shortened: as §1
# [12] = tested on: CPC-N (Small Cell Lung Carcinoma)
# Procedure, shortened: as §1
# [13] = tested on: NCI-H226 (Mesothelioma)
# Procedure, shortened: as §1
# [14] = tested on: MS-1 (Small Cell Lung Carcinoma)
# Procedure, shortened: as §1
# [15] = tested on: ES6 (Ewing's Sarcoma)
# Procedure, shortened: as §1
# [16] = tested on: IST-MEL1 (Melanoma)
# Procedure, shortened: as §1
# [17] = tested on: CL-11 (Colorectal Carcinoma)
# Procedure, shortened: as §1
# [18] = tested on: T47D (Breast Carcinoma)
# Procedure, shortened: as §1
# [19] = tested on: AM-38 (Glioblastoma)
# Procedure, shortened: as §1
# [20] = tested on: MOLT-13 (T-Lymphoblastic Leukemia)
# Procedure, shortened: as §1
Structure (SMILES),Bliss excess [1],Bliss excess [2],Bliss excess [3],Bliss excess [4],Bliss excess [5],Bliss excess [6],Bliss excess [7],Bliss excess [8],Bliss excess [9],Bliss excess [10],Bliss excess [11],Bliss excess [12],Bliss excess [13],Bliss excess [14],Bliss excess [15],Bliss excess [16],Bliss excess [17],Bliss excess [18],Bliss excess [19],Bliss excess [20]
"NC1(C(=O)N[C@@H](CCO)c2ccc(Cl)cc2)CCN(c2ncnc3[nH]ccc23)CC1 [Capivasertib] + COc1nnc2ccc(N3CCC(c4ccc(OCCN5CCN(C)C(=O)[C@H]5C)cc4)CC3)nn12 [AZD5153] (first compound max 10 µM, 7x7, partner max 1 µM)",0.0067,-0.0322,-0.0136,0.0362,-0.0072,0.0469,0.0085,0.0349,0.0661,-0.0028,-0.0442,-0.0348,-0.0165,-0.0737,0.0103,-0.0143,-0.0206,0.0139,0.0039,-0.0111
"NC1(C(=O)N[C@@H](CCO)c2ccc(Cl)cc2)CCN(c2ncnc3[nH]ccc23)CC1 [Capivasertib] + C[C@@H]1COCCN1C2=NC(=NC(=C2)C3(CC3)[S@](=N)(=O)C)C4=C5C=CNC5=NC=C4 [AZD6738] (first compound max 10 µM, 7x7, partner max 10 µM)",-0.0602,0.0523,-0.0105,-0.0576,0.0164,0.0187,-0.0341,-0.0301,-0.0398,-0.0607,0.0158,-0.0117,-0.0775,-0.0465,-0.0479,-0.0446,-0.0376,-0.0095,-0.0121,-0.0387
"NC1(C(=O)N[C@@H](CCO)c2ccc(Cl)cc2)CCN(c2ncnc3[nH]ccc23)CC1 [Capivasertib] + Cn1cnc2c(F)c(Nc3ccc(Br)cc3Cl)c(C(=O)NOCCO)cc21 [Selumetinib] (first compound max 10 µM, 7x7, partner max 10 µM)",-0.0066,0.0835,0.0182,-0.0223,-0.0402,0.0036,0.0054,-0.0381,0.0879,-0.0267,-0.022,-0.0381,-0.063,-0.005,-0.0397,0.0465,-0.0202,-0.0108,0.0564,0.0339
"COc1cccc2c1C(=O)c1c(O)c3c(c(O)c1C2=O)C[C@@](O)(C(=O)CO)C[C@@H]3O[C@H]1C[C@H](N)[C@H](O)[C@H](C)O1 [Doxorubicin] + Cc1cc2ncnn2cc1Nc1ncc2c(n1)n(C1CCOCC1)c(=O)n2C [AZD7648] (first compound max 1 µM, 7x7, partner max 10 µM)",0.0086,0.112,-0.006,0.0605,-0.0059,0.0979,0.0581,0.0433,0.119,0.0261,0.0518,0.105,0.0068,0.0686,0.0672,0.0511,0.0863,-0.0004,0.114,0.209
"COc1cc2ncnc(Nc3ccc(F)c(Cl)c3)c2cc1OCCCN1CCOCC1 [Gefitinib] + CC(C)n1c(=O)n(C)c2cnc3cc(F)c(-c4ccc(OCCCN5CCCCC5)nc4)cc3c21 [AZD1390] (first compound max 10 µM, 7x7, partner max 0.3 µM)",-0.0991,-0.0522,-0.0474,-0.0718,-0.055,-0.0343,-0.0419,-0.0751,-0.0185,-0.0119,-0.06,-0.0369,-0.0661,-0.0252,-0.0574,-0.0684,-0.0474,-0.0438,-0.0811,-0.0246
"CS(=O)(=O)CCNCc1ccc(-c2ccc3ncnc(Nc4ccc(OCc5cccc(F)c5)c(Cl)c4)c3c2)o1 [Lapatinib] + C[C@@H](Oc1cc(-c2cnn(C3CCNCC3)c2)cnc1N)c1c(Cl)ccc(F)c1Cl [Crizotinib] (first compound max 10 µM, 7x7, partner max 10 µM)",-0.0438,0.0299,-0.0065,-0.0618,-0.0442,0.0203,0.0158,-0.0258,-0.0168,-0.0152,-0.0515,-0.0741,-0.0513,-0.0784,-0.0437,-0.0095,-0.0477,-0.0223,-0.0295,0.0036
"CC(=O)c1c(C)c2cnc(Nc3ccc(N4CCNCC4)cn3)nc2n(C2CCCC2)c1=O [Palbociclib] + CC1(C)CCC(CN2CCN(c3ccc(C(=O)NS(=O)(=O)c4ccc(NCC5CCOCC5)c([N+](=O)[O-])c4)c(Oc4cnc5[nH]ccc5c4)c3)CC2)=C(c2ccc(Cl)cc2)C1 [Venetoclax] (first compound max 10 µM, 7x7, partner max 1 µM)",-0.0667,-0.0058,-0.0501,-0.0185,-0.0479,0.0634,-0.0154,-0.0421,0.0153,-0.0083,-0.036,-0.0394,-0.0174,-0.0827,-0.0387,0.0117,-0.0286,0.0466,-0.0058,0.112
"CC(=O)c1c(C)c2cnc(Nc3ccc(N4CCNCC4)cn3)nc2n(C2CCCC2)c1=O [Palbociclib] + Cc1c2c(nn1C)CSCc1cc(n(C)n1)CSc1cc(c3ccccc3c1)OCCCc1c(C(=O)O)n(C)c3c-2c(Cl)ccc13 [AZD5991] (first compound max 10 µM, 7x7, partner max 1 µM)",-0.0489,-0.0132,-0.13,-0.0257,-0.026,-0.0109,-0.061,-0.0396,-0.0441,-0.0151,-0.0477,0.0035,-0.0287,-0.0451,-0.0326,-0.0328,0.0079,0.0375,-0.0448,0.0478
